Read-outs that look alike come from different tables or passages of the source.
Experiments:
[1] = system: breast cancer cell line MCF-7; experiment: MTT assay, tumour cell growth inhibition, breast MCF-7; format: cell-based, human; conditions: for IC50: Homo sapiens, MCF7, Breast MCF-7, MTT, 96 h, read-out: IC50, dose required for 50% inhibition of tumour cell growth
Source text: (§1) The human tumour cell lines were the breast cancer cell line MCF-7, the colon cancer cell line HCT-116, and the lung cancer cell line A-549. The MTT assay was used, which exploits the ability of living cells to metabolise the water soluble tetrazolium salt 3-[4,5-dimethylthiazol-2yl-2,5-diphenyl tetrazolium bromide (MTT) into a water insoluble formazan precipitate (Carmichael et al, 1987). The purple precipitate can then be dissolved in an organic solvent and the optical density determined as a measure of cell survival. Compounds were tested concurrently for a true comparison.
(§2) The compound under study was dissolved in DMSO to yield a 10 mM stock solution. […] Cells were seeded into sterile flat-bottomed 96-well plates at a known initial seeding density (MCF-7 1.5×10E3, HCT-116 1×10E3, A549 2×10E3). The cells were plated in RPMI 1640 medium supplemented with 10% heat-inactivated Foetal Calf Serum solution. The plates were then incubated for 24 h at 37° C., 5% CO2 to allow cell adherence. 20 μl of the appropriate drug dilution (from serial dilutions in medium from 10 mM stock) was added to the wells (to give a final well volume of 200 μl). Plates were returned to the incubator for 96 h, and then 50 μl of MTT was added to each well. After a further 4 h incubation, the medium and any unconverted MTT was aspirated from the wells and the formazan precipitate dissolved by the addition of 100 μl of DMSO and several minutes agitation. The absorbance at A450 was then recorded on a plate reader, and the results expressed as a % survival of DMSO treated controls.

[2] = system: colon cancer cell line HCT-116; experiment: MTT assay, tumour cell growth inhibition, colon HCT-116; format: cell-based, human; conditions: for IC50: Homo sapiens, Colon HCT-116, MTT, 96 h
Source text: as §1, §2

[3] = system: lung cancer cell line A-549; experiment: MTT assay, tumour cell growth inhibition, lung A-549; format: cell-based, human; conditions: for IC50: Homo sapiens, A549, Lung A-549, MTT, 96 h, read-out: IC50, dose required for 50% inhibition of tumour cell growth
Source text: as §1, §2

[4] = target: T1, CYP1B1 enzyme (Homo sapiens, UniProt Q16678); experiment: Metabolism by microsomal preparation of human tumour tissue expressing CYP1B1, HPLC; format: in vitro ADME; conditions: human tumour microsomes, NADPH, 1 h, 37° C., pH 7.6
T1 construct: A microsomal preparation of human tumour tissue expressing the CYP1B1 enzyme was prepared; from tissue; host or cells: human tumour tissue (microsomal preparation)
T1 sequence (Q16678 1-543): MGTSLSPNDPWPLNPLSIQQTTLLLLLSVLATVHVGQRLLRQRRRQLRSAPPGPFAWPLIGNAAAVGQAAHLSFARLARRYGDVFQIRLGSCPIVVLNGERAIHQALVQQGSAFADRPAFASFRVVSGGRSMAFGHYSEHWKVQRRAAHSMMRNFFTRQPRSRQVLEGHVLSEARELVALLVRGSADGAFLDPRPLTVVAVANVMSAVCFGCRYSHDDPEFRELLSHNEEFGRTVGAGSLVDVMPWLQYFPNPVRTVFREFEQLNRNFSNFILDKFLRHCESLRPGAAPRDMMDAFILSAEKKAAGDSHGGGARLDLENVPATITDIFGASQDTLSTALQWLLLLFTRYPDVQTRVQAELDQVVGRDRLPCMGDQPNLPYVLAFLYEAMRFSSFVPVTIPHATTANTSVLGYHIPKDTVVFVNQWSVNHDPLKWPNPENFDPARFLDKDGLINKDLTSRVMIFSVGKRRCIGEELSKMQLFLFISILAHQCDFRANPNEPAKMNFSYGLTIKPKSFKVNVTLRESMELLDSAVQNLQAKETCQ
Description: A microsomal preparation of human tumour tissue expressing the CYP1B1 enzyme was prepared essentially as described by the method of Barrie et al., 1989. The experiment was carried out at 37° C., under yellow light. An array of 1.5 ml centrifuge tubes were set up in a water bath shaker-under aerobic conditions. To each tube was then added 500 μl of pH 7.6 buffer (0.1 M NaK2PO4), followed by NADPH (5 μl of a 25 mM stock solution). The microsomal preparation (80 μl) was then added and the tubes preincubated for 5 min at 37° C.
The prodrug substrate, compound II, was then added (10 μl of a 5 mM stock solution) and incubated for 1 h at 37° C. After 1 h the tubes were transferred to an ice/water cooling bath (0° C.). The tubes were then centrifuged at 15,000 rpm for 30 min. A sample of the supernatant (100 μl) was then taken and analysed by HPLC. HPLC conditions: Spherisorb C18 (25 cm×4.6 mm id), used without guard column. Flow rate 1 ml/min. Eluent 75% 0.1 M KH2PO4 and 25% acetonitrile.
The hydroxylated metabolite, compound III, was detected by HPLC, and confirmed by comparison with the authentic hydroxylated synthetic compound III.

[5] = system: splenocytes; experiment: Splenocyte anti-proliferation assay (Con A stimulated, tritiated thymidine); format: cell-based; conditions: FIG. 1, triplicate
Source text: The anti-inflammatory effects of Compound II (DMU-120) were examined (in triplicate) using a splenocyte anti-proliferation assay.
The splenocyte anti-proliferation assay has been developed to identify compounds that have useful anti-inflammatory properties for the treatment of auto-inflammatory diseases such as rheumatoid arthritis. See, for example, Yamashita et al., 1994. This well known assay is described in detail in, for example, Mosmann, 1983. In this assay, splenocyte proliferation is stimulated by the inflammatory response inducer conconavilin A (Con A). Cell proliferation is monitored by detecting radiation (counts per minute, cpm) from a radio label (tritiated thymidine) which is incorporated only into proliferating cells.
The compound was assayed as a solution in dimethylsulfoxide (DMSO) as solvent. The solvent control is also shown for comparison. Other controls are also shown. “ConA” denotes the signal (cpm) detected for a control where cell proliferation is stimulated by ConA in the absence of a test compound. “Med” denotes the signal (cpm) detected for the cell culture medium alone. “Bkg” denotes the background radiation level (cpm).

[6] = read-out: IC50, dose required for 50% inhibition of tumour cell growth

SMILES | Selectivity Factor (Prodrug/Metabolite) ([1]; Breast MCF-7, IC50 Compound II / IC50 Compound III) | IC50 [1] [nM] | Selectivity Factor (Prodrug/Metabolite) ([2]; Colon HCT-116, IC50 Compound II / IC50 Compound III) | IC50 [2, 6] [nM] | IC50 [3] [nM] | Selectivity Factor (Prodrug/Metabolite) ([3]; Lung A-549, IC50 Compound II / IC50 Compound III) | Metabolic conversion by CYP1B1 (aromatic hydroxylation) [4] | Concentration showing anti-inflammatory effects on splenocyte proliferation [5] | melting point [°C] | IC50 ([2]; read-out: IC50 against colon tumour cell line HCT-116, restated in nM) [nM]
COc1ccc(/C=C/C(=O)c2cc(OC)cc(OC)c2)cc1 [Compound II, (E)-1-(4-Methoxyphenyl)-3-(3,5-dimethoxyphenyl)prop-1-en-3-one] | 1100 | 690 | 15000 | 1200 | 6600 | 80 | converted to the hydroxylated metabolite compound III | less than 10 μM | 87 to 88 | 
COc1cc(OC)cc(C(=O)/C=C/c2ccc(OC)c(O)c2)c1 [Compound III, (E)-1-(3-Hydroxy-4-methoxyphenyl)-3-(3,5-dimethoxyphenyl)prop-1-en-3-one] |  | 0.65 |  | 0.08 | 80 |  |  |  | 129 | 0.08
COc1cc(OC)cc(C(=O)/C=C/c2ccc(OC)cc2OC)c1 [Compound IV, (E)-1-(2,4-dimethoxyphenyl)-3-(3,5-dimethoxyphenyl)prop-1-en-3-one] |  | 0.1 |  |  |  |  |  |  |  | 

From patent US6787672B2, “Substituted chalcones as therapeutic compounds” (Cancer Research Technology Limited, priority 2000, dated 2004)
